For data set [1], the system named is p388 (murine leukemia). As to the kind of experiment: In vitro anti-cancer activity, MTS growth inhibition assay, p388. In kind it is cell-based. The settings on record: Mus musculus, p388 cells, 72 hours. On the procedure:
(§1) The in vitro activity of the compounds was determined in the following seven human cancer cell lines. MDA435 (human breast cancer), MIP101 (human colon cancer), HL-60 (human myeloid leukemia), U937 (human leukemia), p388 (murine leukemia), DU-145 (human prostate cancer), MES-SA (human uterine sarcoma) were obtained from ATCC (American Type of Culture Collection).
(§2) The cell lines were maintained in RPMI1640 (GIBCO) supplemented with 10% FCS, 100 units/ml penicillin, 100 ug/ml streptomycin, and 2 mM L-glutamine. The cells were split every third day and diluted to a concentration of 2×10^5 cells/ml one day before experiment. All experiments were performed on exponentially growing cell culture. Cell densities were 2.5×10^4 cells/ml in all experiment.
(§3) A stock solution of Compound (1) and a stock solution of Taxol (positive control) were prepared by dissolving the compound at a concentration of 1 mM in 100% DMSO. Final concentrations were obtained by diluting the stock solution directly into the tissue culture medium. Cells were incubated with varying concentrations of the compounds for 72 hours and the IC50 was determined by MTS (i.e. 3-(4,5,-dimethylthiazol-2-yl)-2,5-diphenyl tetrazolium bromide) assay. IC50 stands for the concentration of compound required to inhibit 50% tumor cell growth.

Data set [2] relates to DU-145 (human prostate cancer). As to the kind of experiment: In vitro anti-cancer activity, MTS growth inhibition assay, DU-145. In kind it is cell-based. The following applies: DU-145 cells, 72 hours, MTS assay (Table 1), read-out: IC50. On the procedure:
as §1, §2, §3
(§4) The protocol described in Examples 9-10 was used to assay inhibition by Compounds (20) (21) (24) and (28) on the growth of cancer cell lines MES-SA (human uterine sarcoma cell line) and DU-145 (human prostate cancer).

Data set [3] deals with MES-SA/DX5 (multi-drug resistant human uterine sarcoma cell line). The data set can be described thus: In vitro activity against multi-drug resistant cell line MES-SA/DX5. It counts as cell-based. The settings on record: MES-SA/Dx5, MES-SA/DX-5 MDR cells (Table 2). As for the experimental part:
as §2, §3
In vitro activity was determined in two MDR (Multi Drug Resistant) human cancer cell lines. HL-60/TX1000 was isolated in vitro by subculturing HL-60 in progressively higher concentration of Taxol. HL-60/TX1000 cells over-express mdr-1 mRNA and p-glycoprotein, as determined by western blot and immunofluorescence labeling with antiPGP antibodies. The cell is cross-resistant to Taxol, Vincristine, Adriamycin, Etoposide and Doxorubicin. MES-SA/Dx5 was established in the presence of increasing concentrations of Doxorubicin. […] MES-SA/Dx5 was purchased from ATCC.
The procedure for culturing the cells and assaying cancer cell growth inhibition were as described in Example 3.
The protocol described in Examples 9-10 was used to assay inhibition by Compounds (2)-(8) on the growth of the multidrug resistant cancer cell line MES-SA/DX5, which is a MDR uterine sarcoma cell line.

Data set [4] relates to MES-SA (human uterine sarcoma). The data set can be described thus: In vitro anti-cancer activity, MTS growth inhibition assay, MES-SA. It counts as cell-based. The settings on record: MES-SA cells, 72 hours, MTS assay (Table 1), read-out: IC50. As for the experimental part: as §1, §2, §3, §4
The subject of data set [5] is HL-60 (human myeloid leukemia). The data set can be described thus: In vitro anti-cancer activity, MTS growth inhibition assay, HL-60. It counts as cell-based. The settings on record: HL-60 cells, 72 hours. On the procedure: as §1, §2, §3
Data set [6] in a line: Body weight of nude mice bearing MDA435 tumor during treatment. In kind it is in vivo, nude mice (CD-1 nu/nu). The following applies: 25 and 50 mg/kg orally. As for the experimental part: The in vivo anti-cancer efficacy of Compound (1) was assessed in tumor bearing mice using a tumor growth inhibition assay. Human breast tumor (MDA-435) cells were implanted by injection of a tumor cell suspension subcutaneously in the flank of a nude mouse. Treatment of the tumor with an experimental compound began after the tumor had been established (volume was approximately 100 mm^3). The animal then began a multiple injection schedule where the compound was administered orally. Tumors were measured two times a week. During the course of this assay, animals were monitored daily for signs of toxicity including body weight loss.
A dosing solution for compound administration was prepared by dissolving 1 gram of Compound (1) in 10 ml of acetone (HPLC grade), and sonicated for 5 minutes using 550 Sonic Dismembrator. 1.2 equivalents of 1 N HCl aqueous solution were added to the acetone solution which was then sonicated for 5 minutes. All solvent was then evaporated from the solution by using Speed Vac Plus SC 250 DDA over night. The dried powder was used for preparing the dosing solution of Compound (1). 1% Methyl cellulose (MC) vehicle was prepared by dissolving 1.0 gram of Methyl cellulose, 400 cps, U.S.P. (Spectrum Laboratory Products, Cat. # ME136) in 100 mL of H2O. This mixture was then stirred for 12 hours at room temperature to produce a clear 1% MC solution. […]

Molecules are shown by their SMILES.

`Cc1cc(NC(=O)C(=O)c2cc(Cc3ccc(C#N)cc3)n3ccccc23)sn1` [Compound (1), 2-(3-(4-cyanobenzyl)-indolizin-1-yl)-N-(3-methyl-isothiazol-5-yl)-2-oxo-acetamide]: the IC50 in data set [1] is 10 nM; in data set [2], 50 nM; in data set [3] it was 50 nM; in data set [4], 10 nM; in data set [5], 10 nM. Also, the body weight change entry is reported as “without showing significant body weight loss” in data set [6] (FIG. 2) and “Little or no change in body weight” in data set [6] (FIG. 2, listed as Compound 1).

(Values after US20040214850A1, “1-glyoxylamide indolizines for treating cancer” (Synta Pharmaceuticals Corp., priority 2001, published 2004).)
